The NIST ThermoML archive (doi:10.1021/acs.jced.7b00221)

Test: xn = mol fraction of the nth substance listed
Conditions: 100 kPa, Liquid; for viscosity: Cone and plate viscometry; for mass density: Vibrating tube method

CCCCCCCC[P+](CC)(CC)CC.O=[N+]([O-])c1cn[n-]c1 [triethyloctylphosphonium 4-nitropyrazolide] + CCCCCCn1cc[n+](C)c1C.O=S(=O)([N-]S(=O)(=O)C(F)(F)F)C(F)(F)F
Conditions | mass density [kg/m3] | viscosity [mPa·s]
278.15 K, x1 = 0.124 | – | 602
278.15 K, x1 = 0.25 | – | 771
278.15 K, x1 = 0.401 | – | 1011
278.15 K, x1 = 0.5 | – | 1156
278.15 K, x1 = 0.6 | – | 1244
278.15 K, x1 = 0.751 | – | 1382
278.15 K, x1 = 0.9 | – | 1386
283.15 K, x1 = 0.124 | 1331.5 | 409
283.15 K, x1 = 0.25 | 1290 | 510
283.15 K, x1 = 0.401 | – | 658
283.15 K, x1 = 0.5 | 1206.7 | 742
283.15 K, x1 = 0.6 | – | 795
283.15 K, x1 = 0.751 | 1123.8 | 883
283.15 K, x1 = 0.9 | 1074.2 | 890
283.15 K, x1 = 1 | 1040.7 | –
288.15 K, x1 = 0.124 | 1327.1 | 283
288.15 K, x1 = 0.25 | 1285.9 | 348
288.15 K, x1 = 0.401 | – | 442
288.15 K, x1 = 0.5 | 1203 | 491
288.15 K, x1 = 0.6 | – | 524
288.15 K, x1 = 0.751 | 1120.4 | 580
288.15 K, x1 = 0.9 | 1071 | 589
288.15 K, x1 = 1 | 1037.7 | –
293.15 K, x1 = 0.124 | 1322.8 | 204
293.15 K, x1 = 0.25 | 1281.8 | 246
293.15 K, x1 = 0.401 | – | 307
293.15 K, x1 = 0.5 | 1199.2 | 338
293.15 K, x1 = 0.6 | – | 359
293.15 K, x1 = 0.751 | 1117 | 396
293.15 K, x1 = 0.9 | 1067.8 | 404
293.15 K, x1 = 1 | 1034.6 | –
295.15 K, x1 = 0.124 | 1321 | –
295.15 K, x1 = 0.25 | 1280.1 | –
295.15 K, x1 = 0.5 | 1197.7 | –
295.15 K, x1 = 0.751 | 1115.6 | –
295.15 K, x1 = 0.9 | 1066.5 | –
295.15 K, x1 = 1 | 1033.4 | –
298.15 K, x1 = 0.124 | 1318.5 | 151
298.15 K, x1 = 0.25 | 1277.6 | 179
298.15 K, x1 = 0.401 | – | 220
298.15 K, x1 = 0.5 | 1195.5 | 241
298.15 K, x1 = 0.6 | – | 254
298.15 K, x1 = 0.751 | 1113.6 | 279
298.15 K, x1 = 0.9 | 1064.6 | 285
298.15 K, x1 = 1 | 1031.5 | –
303.15 K, x1 = 0.124 | 1314.3 | 115
303.15 K, x1 = 0.25 | 1273.7 | 135
303.15 K, x1 = 0.401 | – | 163
303.15 K, x1 = 0.5 | 1191.8 | 177
303.15 K, x1 = 0.6 | – | 185
303.15 K, x1 = 0.751 | 1110.2 | 203
303.15 K, x1 = 0.9 | 1061.4 | 208
303.15 K, x1 = 1 | 1028.5 | –
308.15 K, x1 = 0.124 | 1310.1 | 90
308.15 K, x1 = 0.25 | 1269.7 | 104
308.15 K, x1 = 0.401 | – | 124
308.15 K, x1 = 0.5 | 1188.1 | 134
308.15 K, x1 = 0.6 | – | 139
308.15 K, x1 = 0.751 | 1106.9 | 152
308.15 K, x1 = 0.9 | 1058.3 | 156
308.15 K, x1 = 1 | 1025.5 | –
313.15 K, x1 = 0.124 | 1306 | 72
313.15 K, x1 = 0.25 | 1265.7 | 82
313.15 K, x1 = 0.401 | – | 97
313.15 K, x1 = 0.5 | 1184.5 | 103
313.15 K, x1 = 0.6 | – | 106
313.15 K, x1 = 0.751 | 1103.7 | 117
313.15 K, x1 = 0.9 | 1055.3 | 119
313.15 K, x1 = 1 | 1022.6 | –
318.15 K, x1 = 0.124 | 1301.8 | 58
318.15 K, x1 = 0.25 | 1261.7 | 65
318.15 K, x1 = 0.401 | – | 77
318.15 K, x1 = 0.5 | 1180.9 | 82
318.15 K, x1 = 0.6 | – | 83
318.15 K, x1 = 0.751 | 1100.4 | 91
318.15 K, x1 = 0.9 | 1052.2 | 94
318.15 K, x1 = 1 | 1019.6 | –
323.15 K, x1 = 0.124 | 1297.6 | –
323.15 K, x1 = 0.25 | 1257.7 | 53
323.15 K, x1 = 0.401 | – | 63
323.15 K, x1 = 0.5 | 1177.3 | 66
323.15 K, x1 = 0.6 | – | 67
323.15 K, x1 = 0.751 | 1097.1 | 73
323.15 K, x1 = 0.9 | 1049.1 | 75
323.15 K, x1 = 1 | 1016.7 | –
328.15 K, x1 = 0.124 | 1293.5 | –
328.15 K, x1 = 0.25 | 1253.8 | –
328.15 K, x1 = 0.5 | 1173.7 | –
328.15 K, x1 = 0.751 | 1093.9 | –
328.15 K, x1 = 0.9 | 1046.1 | –
328.15 K, x1 = 1 | 1013.8 | –
333.15 K, x1 = 0.124 | 1289.3 | –
333.15 K, x1 = 0.25 | 1249.8 | –
333.15 K, x1 = 0.5 | 1170.2 | –
333.15 K, x1 = 0.751 | 1090.6 | –
333.15 K, x1 = 0.9 | 1043 | –
333.15 K, x1 = 1 | 1010.8 | –
338.15 K, x1 = 0.124 | 1285.1 | –
338.15 K, x1 = 0.25 | 1245.8 | –
338.15 K, x1 = 0.5 | 1166.6 | –
338.15 K, x1 = 0.751 | 1087.4 | –
338.15 K, x1 = 0.9 | 1040 | –
338.15 K, x1 = 1 | 1007.9 | –
343.15 K, x1 = 0.124 | 1281 | –
343.15 K, x1 = 0.25 | 1241.9 | –
343.15 K, x1 = 0.5 | 1163 | –
343.15 K, x1 = 0.751 | 1084.1 | –
343.15 K, x1 = 0.9 | 1036.9 | –
343.15 K, x1 = 1 | 1005 | –
348.15 K, x1 = 0.124 | 1276.9 | –
348.15 K, x1 = 0.25 | 1237.9 | –
348.15 K, x1 = 0.5 | 1159.5 | –
348.15 K, x1 = 0.751 | 1080.9 | –
348.15 K, x1 = 0.9 | 1033.9 | –
348.15 K, x1 = 1 | 1002.1 | –
353.15 K, x1 = 0.124 | 1272.7 | –
353.15 K, x1 = 0.25 | 1234 | –
353.15 K, x1 = 0.5 | 1155.9 | –
353.15 K, x1 = 0.751 | 1077.7 | –
353.15 K, x1 = 0.9 | 1030.9 | –
353.15 K, x1 = 1 | 999.2 | –

CCCCCCCCCCCCCC[P+](CCCCCC)(CCCCCC)CCCCCC.N#Cc1ccc[n-]1 [trihexyl(tetradecyl)phosphonium 2-cyanopyrrolide] + CCCCCC[n+]1ccn(C)c1.O=S(=O)([N-]S(=O)(=O)C(F)(F)F)C(F)(F)F
viscosity [mPa·s]
Conditions | 278.15 K | 283.15 K | 288.15 K | 293.15 K | 298.15 K | 303.15 K | 308.15 K | 313.15 K | 318.15 K | 323.15 K
x1 = 0.1 | 337 | 240 | 176 | 132 | 101 | 80 | 64 | 52 | – | –
x1 = 0.2 | 520 | 363 | 259 | 190 | 144 | 111 | 88 | 71 | 58 | –
x1 = 0.3 | 662 | 455 | 319 | 229 | 170 | 129 | 100 | 79 | 64 | 52
x1 = 0.4 | 900 | 608 | 420 | 298 | 217 | 162 | 125 | 97 | 78 | 63
x1 = 0.496 | 1216 | 815 | 558 | 392 | 284 | 210 | 160 | 123 | 98 | 79
x1 = 0.6 | 1407 | 938 | 638 | 445 | 319 | 236 | 177 | 136 | 107 | 85
x1 = 0.698 | 1684 | 1117 | 755 | 525 | 376 | 275 | 207 | 158 | 124 | 99
x1 = 0.8 | 1749 | 1160 | 785 | 546 | 391 | 286 | 214 | 163 | 128 | 102
x1 = 0.898 | 1844 | 1223 | 830 | 578 | 414 | 303 | 228 | 173 | 135 | 108
x1 = 1 | 1764 | 1179 | 804 | 563 | 404 | 297 | 223 | 170 | 133 | 106
